Reference: patent US9540379B2 (priority 2011, dated 2017)

Biological target: PDE10A (Homo sapiens (Human), UniProt Q9Y233)
Settings: read-out: Inhibition of PDE10A, IC50
Experimental: Inhibition of Recombinant PDE10A (Expressed in Baculovirus/SF21 Cells)
PDE activity was determined in a one step procedure in microtiter plates. The reaction mixture of 100 μl contained 50 mM Tris-HCl/5 mM MgCl2 buffer (pH=7.4, Sigma, Deisenhofen, Germany; Merck, Darmstadt, Germany) 0.1 μM [3H]-cAMP (PerkinElmer, Shelton, USA) and the enzyme. Non-specific enzyme activity was determined without the enzyme.
The reaction was initiated by addition of the substrate solution and was carried out at 37° C. for 30 minutes. Enzymatic activity then was stopped by addition of 25 μl Ysi-SPA-beads (PerkinElmer, Shelton, USA). One h later the mixture was measured in a liquid scintillation counter for microtiter plates (Microbeta Trilux). The Biomek 2000 (Beckman) was used routinely for pipetting of the incubation mixture. […] For determination of IC50 values the Hill-plot, 2-parameter-model, was used.

Sequence of PDE10A (Q9Y233 other isoform, or with tags, fused parts or gaps): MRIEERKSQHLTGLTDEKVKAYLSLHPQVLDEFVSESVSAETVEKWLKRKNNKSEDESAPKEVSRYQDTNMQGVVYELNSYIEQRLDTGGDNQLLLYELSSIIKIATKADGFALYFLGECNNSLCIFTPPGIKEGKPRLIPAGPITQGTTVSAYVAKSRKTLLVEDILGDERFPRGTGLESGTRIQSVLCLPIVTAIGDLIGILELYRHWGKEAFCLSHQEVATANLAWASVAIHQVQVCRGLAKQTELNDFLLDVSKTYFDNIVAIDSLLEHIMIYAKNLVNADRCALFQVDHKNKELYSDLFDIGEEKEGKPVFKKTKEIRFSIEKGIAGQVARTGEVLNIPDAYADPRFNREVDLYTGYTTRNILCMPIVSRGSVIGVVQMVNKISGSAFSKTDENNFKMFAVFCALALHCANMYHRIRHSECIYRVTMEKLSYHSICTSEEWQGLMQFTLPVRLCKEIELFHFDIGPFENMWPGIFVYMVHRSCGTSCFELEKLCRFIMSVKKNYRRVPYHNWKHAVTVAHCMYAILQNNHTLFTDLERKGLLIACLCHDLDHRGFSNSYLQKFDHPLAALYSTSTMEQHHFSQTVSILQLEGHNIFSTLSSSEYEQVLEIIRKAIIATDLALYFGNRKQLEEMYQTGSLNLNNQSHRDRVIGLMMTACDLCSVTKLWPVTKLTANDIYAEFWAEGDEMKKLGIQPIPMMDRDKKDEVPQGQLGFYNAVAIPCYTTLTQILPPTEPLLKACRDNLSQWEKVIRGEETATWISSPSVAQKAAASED

| SMILES | IC50 [µM] |
| --- | --- |
| Cc1nc2ccc(Cl)cc2n2c(-c3ccccc3Cl)nnc12 [Example 1, 8-Chloro-1-(2-chloro-phenyl)-4-methyl-[1,2,4]triazolo[4,3-a]quinoxaline] | 0.045 |
| Cc1nc2ccc(Cl)cc2n2c(-c3ccccc3F)nnc12 [Example 2, 8-Chloro-1-(2-fluoro-phenyl)-4-methyl-[1,2,4]triazolo[4,3-a]quinoxaline] | 0.214 |
| Cc1ncccc1-c1nnc2c(C)nc3ccc(Cl)cc3n12 [Example 5, 8-Chloro-4-methyl-1-(2-methyl-pyridin-3-yl)-[1,2,4]triazolo[4,3-a]quinoxaline] | 0.383 |
| Cc1nc2ccc(Cl)cc2n2c(-c3cc(Cl)ccc3Cl)nnc12 [Example 6, 8-Chloro-1-(2,5-dichloro-phenyl)-4-methyl-[1,2,4]triazolo[4,3-a]quinoxaline] | 0.131 |
| COc1ccc(Cl)c(-c2nnc3c(C)nc4ccc(Cl)cc4n23)c1 [Example 7, 8-Chloro-1-(2-chloro-5-methoxy-phenyl)-4-methyl-[1,2,4]triazolo[4,3-a]quinoxaline] | 0.104 |
| Cc1cnccc1-c1nnc2c(C)nc3ccc(Cl)cc3n12 [Example 9, 8-Chloro-4-methyl-1-(3-methyl-pyridin-4-yl)-[1,2,4]triazolo[4,3-a]quinoxaline] | 0.736 |
| Cc1nc2ccc(Cl)cc2n2c(-c3cc(C(F)(F)F)ccc3Cl)nnc12 [Example 10, 8-Chloro-1-(2-chloro-5-trifluoromethyl-phenyl)-4-methyl-[1,2,4]triazolo[4,3-a]quinoxaline] | > 1 |
| CCCCOc1ccc(F)c(-c2nnc3c(C)nc4ccc(Cl)cc4n23)c1 [Example 11, 1-(5-Butoxy-2-fluoro-phenyl)-8-chloro-4-methyl-[1,2,4]triazolo[4,3-a]quinoxaline] | > 1 |
| CCCCOc1ccc(Cl)c(-c2nnc3c(C)nc4ccc(Cl)cc4n23)c1 [Example 12, 1-(5-Butoxy-2-chloro-phenyl)-8-chloro-4-methyl-[1,2,4]triazolo[4,3-a]quinoxaline] | > 1 |
| CCCCCCOc1ccc(C)c(-c2nnc3c(C)nc4ccc(Cl)cc4n23)c1 [Example 15, 8-Chloro-1-(5-hexyloxy-2-methyl-phenyl)-4-methyl-[1,2,4]triazolo[4,3-a]quinoxaline] | > 1 |
| Cc1nc2ccc(Cl)cc2n2c(-c3cc(OCCCC(F)(F)F)ccc3Cl)nnc12 [Example 16, 8-Chloro-1-[2-chloro-5-(4,4,4-trifluoro-butoxy)-phenyl]-4-methyl-[1,2,4]triazolo[4,3-a]quinoxaline] | > 1 |
| Cc1nc2ccc(Cl)cc2n2c(-c3cc(OCCCCF)ccc3F)nnc12 [Example 17, 8-Chloro-1-[2-fluoro-5-(4-fluoro-butoxy)-phenyl]-4-methyl-[1,2,4]triazolo[4,3-a]quinoxaline] | > 1 |
| Cc1nc2cc(Cl)ccc2n2c(-c3c(F)cccc3F)nnc12 [Example 18, 7-Chloro-1-(2,6-difluoro-phenyl)-4-methyl-[1,2,4]triazolo[4,3-a]quinoxaline] | 0.103 |
| Cc1nc2cc(Cl)ccc2n2c(-c3cc(Cl)ccc3Cl)nnc12 [Example 19, 7-Chloro-1-(2,5-dichloro-phenyl)-4-methyl-[1,2,4]triazolo[4,3-a]quinoxaline] | > 1 |
| Cc1nc2cc(Cl)ccc2n2c(-c3cc(C(F)(F)F)ccc3Cl)nnc12 [Example 21, 7-Chloro-1-(2-chloro-5-trifluoromethyl-phenyl)-4-methyl-[1,2,4]triazolo[4,3-a]quinoxaline] | > 1 |
| CCCCOc1ccc(F)c(-c2nnc3c(C)nc4cc(Cl)ccc4n23)c1 [Example 22, 1-(5-Butoxy-2-fluoro-phenyl)-7-chloro-4-methyl-[1,2,4]triazolo[4,3-a]quinoxaline] | > 1 |
| CCCCOc1ccc(Cl)c(-c2nnc3c(C)nc4cc(Cl)ccc4n23)c1 [Example 23, 1-(5-Butoxy-2-chloro-phenyl)-7-chloro-4-methyl-[1,2,4]triazolo[4,3-a]quinoxaline] | > 1 |
| CCCCCCOc1ccc(F)c(-c2nnc3c(C)nc4cc(Cl)ccc4n23)c1 [Example 24, 7-Chloro-1-(2-fluoro-5-hexyloxy-phenyl)-4-methyl-[1,2,4]triazolo[4,3-a]quinoxaline] | > 1 |
| CCCCOc1ccc(C)c(-c2nnc3c(C)nc4cc(Cl)ccc4n23)c1 [Example 25, 1-(5-Butoxy-2-methyl-phenyl)-7-chloro-4-methyl-[1,2,4]triazolo[4,3-a]quinoxaline] | > 1 |
| CCCCCCOc1ccc(C)c(-c2nnc3c(C)nc4cc(Cl)ccc4n23)c1 [Example 26, 7-Chloro-1-(5-hexyloxy-2-methyl-phenyl)-4-methyl-[1,2,4]triazolo[4,3-a]quinoxaline] | > 1 |
| Cc1nc2ccccc2n2c(-c3ccccc3F)nnc12 [Example 30, 1-(2-Fluoro-phenyl)-4-methyl-[1,2,4]triazolo[4,3-a]quinoxaline] | 0.346 |
| Cc1nc2ccccc2n2c(-c3cc(Cl)ccc3Cl)nnc12 [Example 34, 1-(2,5-Dichloro-phenyl)-4-methyl-[1,2,4]triazolo[4,3-a]quinoxaline] | 0.33 |

| SMILES | IC50 [µM] |
| --- | --- |
| Cc1nc2ccccc2n2c(-c3cccc(Cl)c3Cl)nnc12 [Example 35, 1-(2,3-Dichloro-phenyl)-4-methyl-[1,2,4]triazolo[4,3-a]quinoxaline] | 0.36 |
| Cc1nc2ccccc2n2c(-c3cc(OCC4CCC4)ccc3Cl)nnc12 [Example 47, 1-(2-Chloro-5-cyclobutylmethoxy-phenyl)-4-methyl-[1,2,4]triazolo[4,3-a]quinoxaline] | > 1 |
| Cc1nc2ccccc2n2c(-c3cc(OCC4CC4)ccc3Cl)nnc12 [Example 48, 1-(2-Chloro-5-cyclopropylmethoxy-phenyl)-4-methyl-[1,2,4]triazolo[4,3-a]quinoxaline] | > 1 |
| Cc1nc2ccccc2n2c(-c3cc(OCCc4ccccc4)ccc3Cl)nnc12 [Example 49, 1-(2-Chloro-5-phenethyloxy-phenyl)-4-methyl-[1,2,4]triazolo[4,3-a]quinoxaline] | > 1 |
| Cc1nc2ccccc2n2c(-c3cc(O)ccc3Cl)nnc12 [Example 50, 4-Chloro-3-(4-methyl-[1,2,4]triazolo[4,3-a]quinoxalin-1-yl)-phenol] | 0.062 |
| Cc1nc2ccc(F)cc2n2c(-c3ccccc3F)nnc12 [Example 52, 8-Fluoro-1-(2-fluoro-phenyl)-4-methyl-[1,2,4]triazolo[4,3-a]quinoxaline] | 0.553 |
| Cc1ncccc1-c1nnc2c(C)nc3ccc(F)cc3n12 [Example 53, 8-Fluoro-4-methyl-1-(2-methyl-pyridin-3-yl)-[1,2,4]triazolo[4,3-a]quinoxaline] | 1 |
| COc1ccc(Cl)c(-c2nnc3c(C)nc4ccc(F)cc4n23)c1 [Example 56, 1-(2-Chloro-5-methoxy-phenyl)-8-fluoro-4-methyl-[1,2,4]triazolo[4,3-a]quinoxaline] | 0.279 |
| Cc1nc2ccc(F)cc2n2c(-c3cc(C(F)(F)F)ccc3Cl)nnc12 [Example 57, 1-(2-Chloro-5-trifluoromethyl-phenyl)-8-fluoro-4-methyl-[1,2,4]triazolo[4,3-a]quinoxaline] | > 1 |
| CCCCOc1ccc(F)c(-c2nnc3c(C)nc4ccc(F)cc4n23)c1 [Example 58, 1-(5-Butoxy-2-fluoro-phenyl)-8-fluoro-4-methyl-[1,2,4]triazolo[4,3-a]quinoxaline] | > 1 |
| CCCCOc1ccc(Cl)c(-c2nnc3c(C)nc4ccc(F)cc4n23)c1 [Example 59, 1-(5-Butoxy-2-chloro-phenyl)-8-fluoro-4-methyl-[1,2,4]triazolo[4,3-a]quinoxaline] | > 1 |
| CCCCCCOc1ccc(F)c(-c2nnc3c(C)nc4ccc(F)cc4n23)c1 [Example 60, 8-Fluoro-1-(2-fluoro-5-hexyloxy-phenyl)-4-methyl-[1,2,4]triazolo[4,3-a]quinoxaline] | > 1 |
| COc1ccccc1-c1nnc2c(C)nc3ccc(C(F)(F)F)cc3n12 [Example 63, 1-(2-Methoxy-phenyl)-4-methyl-8-trifluoromethyl-[1,2,4]triazolo[4,3-a]quinoxaline] | 0.265 |
| Cc1nc2ccc(C(F)(F)F)cc2n2c(-c3cccc(Cl)c3Cl)nnc12 [Example 64, 1-(2,3-Dichloro-phenyl)-4-methyl-8-trifluoromethyl-[1,2,4]triazolo[4,3-a]quinoxaline] | 0.337 |
| Cc1nc2ccc(C(F)(F)F)cc2n2c(-c3cc(C(F)(F)F)ccc3Cl)nnc12 [Example 65, 1-(2-Chloro-5-trifluoromethyl-phenyl)-4-methyl-8-trifluoromethyl-[1,2,4]triazolo[4,3-a]quinoxaline] | > 1 |
| Cc1nc2ccc(C(F)(F)F)cc2n2c(-c3ccccc3F)nnc12 [Example 66, 1-(2-Fluorophenyl)-4-methyl-8-trifluoromethyl-[1,2,4]triazolo[4,3-a]quinoxaline] | 0.471 |
| CCCCOc1ccc(F)c(-c2nnc3c(C)nc4ccc(C(F)(F)F)cc4n23)c1 [Example 67, 1-(5-Butoxy-2-fluoro-phenyl)-4-methyl-8-trifluoromethyl-[1,2,4]triazolo[4,3-a]quinoxaline] | > 1 |
| CCCCCCOc1ccc(F)c(-c2nnc3c(C)nc4ccc(C(F)(F)F)cc4n23)c1 [Example 68, 1-(2-Fluoro-5-hexyloxy-phenyl)-4-methyl-8-trifluoromethyl-[1,2,4]triazolo[4,3-a]quinoxaline] | > 1 |
| COc1ccc2c(c1)nc(C)c1nnc(-c3ccccc3F)n12 [Example 73, 1-(2-Fluoro-phenyl)-7-methoxy-4-methyl-[1,2,4]triazolo[4,3-a]quinoxaline] | 0.223 |
| COc1ccc2c(c1)nc(C)c1nnc(-c3ccccc3Cl)n12 [Example 74, 1-(2-Chloro-phenyl)-7-methoxy-4-methyl-[1,2,4]triazolo[4,3-a]quinoxaline] | 0.068 |
| Cc1nc2cc(O)ccc2n2c(-c3ccccc3Cl)nnc12 [Example 76, 1-(2-Chloro-phenyl)-4-methyl-[1,2,4]triazolo[4,3-a]quinoxalin-7-ol] | 0.274 |
| COc1ccc(CCOc2ccc3c(c2)nc(C)c2nnc(-c4ccccc4Cl)n23)cc1OC [Example 78, 1-(2-Chloro-phenyl)-7-[2-(3,4-dimethoxy-phenyl)-ethoxy]-4-methyl-[1,2,4]triazolo[4,3-a]quinoxaline] | 0.048 |
